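Step 1: Grow cells in 96-well plates. Step 2: Expose to compound for 48 hours at 5 concentrations. Step 3: Interpolate endpoints linearly; if unreached, use highest concentration. GI50 = concentration required for 50% inhibition of growth. TGI denotes the concentration required for complete inhibition of growth.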

The text below walks through data of PubChem BioAssay (NCI).

Test systems include A498 renal; ACHN renal; COLO 205 colon; DU-145 prostate; HCT-15 colon; HOP-62 NSCLC; M14 melanoma; MALME-3M melanoma; NCI/ADR-RES ovarian; OVCAR-3 ovarian; SNB-75 CNS; UACC-257 melanoma.
What all share (assay): NCI tumour cell line growth inhibition, 48 h

In the case of `C/C(=C\c1csc(C)n1)[C@@H]1C[C@@H]2O[C@]2(C)CCC[C@H](C)[C@H](O)[C@@H](C)C(=O)C(C)(C)[C@@H](O)CC(=O)O1` (tested in a mixture with another compound), the TGI in the test with A498 renal was over 1 µM; in the test with ACHN renal it was over 1 µM; in the test on COLO 205 colon, 0.119 µM; in the test with DU-145 prostate, 0.0682 µM; with HCT-15 colon, over 1 µM; in the test on HOP-62 NSCLC, over 1 µM. Besides, the TGI with M14 melanoma is over 1 µM; in the test on MALME-3M melanoma, over 1 µM; with NCI/ADR-RES ovarian it was 0.13 µM; in the test on OVCAR-3 ovarian, 0.0839 µM; in the test with UACC-257 melanoma it was over 1 µM. In addition, the GI50 with DU-145 prostate is 5.28 nM; with SNB-75 CNS, 5.51 nM.
Take `CCC/C(Cl)=N\OC(=O)Nc1ccc(Br)cc1`: the TGI is 32.2 µM in the test with A498 renal; 20.3 µM in the test on ACHN renal; 7.19 µM with COLO 205 colon; 27.2 µM with DU-145 prostate; 19.9 µM in the test with HCT-15 colon; 42.6 µM with HOP-62 NSCLC. The TGI in the test with M14 melanoma is 25.2 µM; in the test on MALME-3M melanoma, 10.8 µM; in the test with NCI/ADR-RES ovarian, 40.5 µM; with OVCAR-3 ovarian, 16.3 µM; in the test on SNB-75 CNS, 29 µM; with UACC-257 melanoma, 27 µM.
With `Cc1ccc(S(=O)(=O)Oc2coc(CO)cc2=O)cc1`, the TGI in the test with A498 renal is 30.2 µM; in the test on ACHN renal, 38.2 µM; in the test on COLO 205 colon, 28.6 µM; in the test on DU-145 prostate, 27.1 µM; in the test with HCT-15 colon, over 49.5 µM; in the test with HOP-62 NSCLC it was 34 µM. Further, the TGI in the test on M14 melanoma is 25.9 µM; in the test with MALME-3M melanoma, 44.5 µM; in the test on NCI/ADR-RES ovarian, over 69.5 µM; in the test on OVCAR-3 ovarian it was 31.9 µM; with SNB-75 CNS, 33.3 µM; with UACC-257 melanoma, 43.4 µM.
Regarding `C=CCN1C(=O)N/C(=C\c2ccc(Cl)cc2)C1=O`, the TGI with A498 renal, in the test on ACHN renal, with COLO 205 colon, in the test with DU-145 prostate, with HCT-15 colon and in the test with HOP-62 NSCLC was over 100 µM each time. The TGI with M14 melanoma, in the test on MALME-3M melanoma, in the test with NCI/ADR-RES ovarian, in the test on OVCAR-3 ovarian, with SNB-75 CNS and in the test with UACC-257 melanoma was over 100 µM each time.
With `CCN(CC)CCN1CCN=c2c3cc(OC)ccc3n3cnc4ccc1c2c43`, the TGI in the test on A498 renal worked out at 1.82 µM; with ACHN renal, 3.61 µM; with COLO 205 colon, 2.6 µM; in the test on DU-145 prostate, 4.39 µM; in the test with HCT-15 colon it was 1.9 µM; with HOP-62 NSCLC, 3.46 µM. The TGI in the test with M14 melanoma was 2.85 µM; in the test with MALME-3M melanoma it was 2.74 µM; in the test on NCI/ADR-RES ovarian, 2.39 µM; in the test on OVCAR-3 ovarian it was 3.26 µM; in the test on SNB-75 CNS, 2.27 µM; in the test on UACC-257 melanoma, 3.74 µM.
For `OC1OC(c2ccc[nH]2)C(F)(F)C(F)(F)C1(F)F` (centres undefined), the TGI with A498 renal, in the test with ACHN renal, in the test with COLO 205 colon, with DU-145 prostate, in the test with HCT-15 colon and in the test with HOP-62 NSCLC was over 100 µM in each case. The TGI in the test with M14 melanoma, with MALME-3M melanoma, in the test on NCI/ADR-RES ovarian, in the test on OVCAR-3 ovarian, in the test on SNB-75 CNS and with UACC-257 melanoma was over 100 µM each time.
Take `COc1ccc(-c2cc(=O)c3c(O)c(OC)c(O)cc3o2)cc1O`: the TGI is 65.8 µM in the test on A498 renal; over 100 µM with ACHN renal; 59.6 µM with COLO 205 colon; over 100 µM in the test with DU-145 prostate; over 100 µM in the test on HCT-15 colon; over 100 µM with HOP-62 NSCLC. Also, the TGI is over 75 µM with M14 melanoma; over 25.8 µM in the test on MALME-3M melanoma; over 21.2 µM with NCI/ADR-RES ovarian; over 100 µM in the test on OVCAR-3 ovarian; 60 µM with SNB-75 CNS; over 100 µM in the test with UACC-257 melanoma.
`c1ccc2c(OCC3CO3)ccc(OCC3CO3)c2c1` (centres undefined): the TGI with A498 renal amounted to 33.9 µM; with ACHN renal it was 6.48 µM; with COLO 205 colon, 23 µM; in the test with DU-145 prostate it was 5.47 µM; with HCT-15 colon, 14.9 µM; in the test with HOP-62 NSCLC it was 10.9 µM. In addition, the TGI in the test on M14 melanoma was 13.3 µM; in the test on MALME-3M melanoma it was 20.5 µM; in the test on NCI/ADR-RES ovarian, 31.1 µM; in the test with OVCAR-3 ovarian, 6.75 µM; in the test with SNB-75 CNS, 28.4 µM; with UACC-257 melanoma, 20 µM.
In the case of `COc1ccc2cc(CNCCCN3CCN(CCCNCc4ccc5cc(OC)ccc5c4)CC3)ccc2c1`, the TGI with A498 renal was 3.07 µM; in the test on ACHN renal it was 3.19 µM; in the test on COLO 205 colon, 2.83 µM; in the test on DU-145 prostate, 2.88 µM; in the test with HCT-15 colon, 3.01 µM; with HOP-62 NSCLC, 3.13 µM. Also, the TGI came out at 3.01 µM with M14 melanoma; 3.14 µM in the test with MALME-3M melanoma; 6.51 µM with NCI/ADR-RES ovarian; 3.02 µM in the test on OVCAR-3 ovarian; 3.08 µM in the test with SNB-75 CNS; 3.86 µM in the test on UACC-257 melanoma.
